A word on the TGI: it is the concentration giving total growth inhibition. High values mean lower sensitivity of the cells, low ones greater sensitivity of the cells. In general, GI50 refers to the concentration at which growth is held to half of that of the control.

Among the test systems are HCT-15 colon; SNB-19 CNS; HL-60(TB) leukemia; HOP-92 NSCLC; NCI-H460 lung; SN12C renal; COLO 205 colon; KM12 colon; SK-OV-3 ovarian.
What all share (assay): DTP human tumour cell line panel, 48 h

Structures are written as SMILES.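 In this assay, cells in 96-well plates receive the compound at five concentrations for 48 hours. Endpoints are linearly interpolated between the surrounding concentrations. Abbreviation: GI50, concentration required for 50% inhibition of growth. TGI is the concentration that stops growth completely.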

Regarding `CCOc1ccc(NC(=O)CC2SC(=Nc3ccc(C)cc3C)NC2=O)cc1` (stereo not drawn), the TGI with HCT-15 colon, in the experiment on SNB-19 CNS, with HL-60(TB) leukemia, with HOP-92 NSCLC, with NCI-H460 lung and with SN12C renal was above 100 µM throughout.
For the compound `CCC(C)(C)n1c(C)nc2c1C(=O)c1ccccc1C2=O`, the TGI is above 100 µM in the experiment on HCT-15 colon; 46.2 µM with COLO 205 colon; above 100 µM with SNB-19 CNS; 47.9 µM with HL-60(TB) leukemia; above 100 µM with KM12 colon; 29 µM with NCI-H460 lung. Further, the TGI in the experiment on SK-OV-3 ovarian and in the experiment on SN12C renal was above 100 µM throughout.
`c1ccc2c(c1)CCc1c(-c3ccncc3)n[nH]c1-2`: the TGI with HCT-15 colon was 87.4 µM; with COLO 205 colon, 63.3 µM; in the experiment with SNB-19 CNS, above 100 µM; in the experiment on HL-60(TB) leukemia, 88.8 µM; in the experiment with KM12 colon it was 55.7 µM; in the experiment with NCI-H460 lung it was above 100 µM. In addition, the TGI in the experiment with SK-OV-3 ovarian was 93.6 µM; with SN12C renal it was above 100 µM.
Consider `CC[C@@H]1NC(C(=O)OC)Cc2c1[nH]c1ccccc21` (stereo partly drawn), for which the TGI with HCT-15 colon, in the experiment on COLO 205 colon, with SNB-19 CNS, with HL-60(TB) leukemia, in the experiment on HOP-92 NSCLC and with KM12 colon was above 100 µM each time. For the same compound, the TGI in the experiment with NCI-H460 lung, with SK-OV-3 ovarian and with SN12C renal was above 100 µM each time.
In the case of `COc1cc(C[P+](c2ccccc2)(c2ccccc2)c2ccccc2)cc(OC)c1OC`, the TGI with HCT-15 colon, with COLO 205 colon, in the experiment on SNB-19 CNS, with HL-60(TB) leukemia, in the experiment with HOP-92 NSCLC and in the experiment on KM12 colon was above 100 µM in each case. Moreover, the TGI in the experiment on NCI-H460 lung, in the experiment on SK-OV-3 ovarian and in the experiment with SN12C renal was above 100 µM each time.
Regarding `C/C(=N\NC(N)=O)c1sc(-c2nc(C)c(/C(C)=N/NC(N)=O)s2)nc1C`, the TGI in the experiment on HCT-15 colon was 46.1 µM; in the experiment on COLO 205 colon it was above 100 µM; in the experiment on SNB-19 CNS it was above 100 µM; with HL-60(TB) leukemia it was above 100 µM; in the experiment with HOP-92 NSCLC, above 100 µM; in the experiment with KM12 colon it was above 100 µM. The TGI with NCI-H460 lung, in the experiment on SK-OV-3 ovarian and in the experiment on SN12C renal was above 100 µM throughout.
Take `CC12c3ccccc3C(OC=O)(c3ccccc31)C1(C)c3ccccc3C2(OC=O)c2ccccc21`: the total growth inhibition concentration (TGI) in the experiment on HCT-15 colon, with COLO 205 colon, in the experiment with SNB-19 CNS, with HL-60(TB) leukemia, in the experiment with HOP-92 NSCLC and in the experiment on KM12 colon was above 100 µM in each case. The TGI in the experiment with NCI-H460 lung, in the experiment on SK-OV-3 ovarian and in the experiment with SN12C renal was above 100 µM throughout.
`CC1=C(C(=O)Nc2ccccc2)C(c2ccc(Cl)c(Cl)c2)C(C(=O)Nc2ccccc2)=C(C)N1`: the TGI came out at 22.9 µM with HCT-15 colon; 29.4 µM in the experiment on COLO 205 colon; 32.6 µM in the experiment with SNB-19 CNS; 25.7 µM with KM12 colon; 31.2 µM with NCI-H460 lung; 31.6 µM with SK-OV-3 ovarian. The same compound yielded a TGI in the experiment on SN12C renal of 28.5 µM.
Take `CC(C)C1CN(C(=O)OCc2ccccc2)C2N1C(=O)C2(C)OCc1ccccc1` (stereo not drawn): the TGI was above 100 µM in the experiment on HCT-15 colon; 37.2 µM in the experiment on COLO 205 colon; above 100 µM in the experiment on SNB-19 CNS; 66.9 µM with HL-60(TB) leukemia; above 100 µM with NCI-H460 lung; above 100 µM in the experiment with SN12C renal.
Turning to `CCCCCCCCCCCC[N+]12CC[N+](CCN)(CC1)CC2`, the TGI was above 100 µM in the experiment with COLO 205 colon; 64.3 µM in the experiment with SNB-19 CNS; above 100 µM in the experiment with HL-60(TB) leukemia; above 100 µM in the experiment on HOP-92 NSCLC; 62.7 µM in the experiment on KM12 colon; above 100 µM in the experiment on NCI-H460 lung. The TGI with SK-OV-3 ovarian and with SN12C renal was above 100 µM in each case.
As to `CCOC(=O)Nc1c(C)nc2ccccn12`, the GI50 with HCT-15 colon, in the experiment on COLO 205 colon, in the experiment with SNB-19 CNS, in the experiment on HOP-92 NSCLC, in the experiment with KM12 colon and with NCI-H460 lung was above 100 µM in each case. In addition, the GI50 with SK-OV-3 ovarian and in the experiment with SN12C renal was above 100 µM each time. For the same compound, the TGI with HCT-15 colon, with COLO 205 colon, in the experiment on SNB-19 CNS, in the experiment with HOP-92 NSCLC, in the experiment with KM12 colon and in the experiment with NCI-H460 lung was above 100 µM throughout. The TGI in the experiment on SK-OV-3 ovarian and in the experiment on SN12C renal was above 100 µM throughout.
With `O=c1[nH]c(=O)n(C2CC(O)C(CO)O2)cc1OS(=O)(=O)C(F)(F)F` (stereo not drawn), the TGI in the experiment on HCT-15 colon, with COLO 205 colon, in the experiment with SNB-19 CNS, with HL-60(TB) leukemia, with HOP-92 NSCLC and in the experiment with KM12 colon was above 100 µM throughout. Besides, the TGI with NCI-H460 lung, in the experiment on SK-OV-3 ovarian and with SN12C renal was above 100 µM in each case.
For the compound `O=C1C=C(Nc2ccc(Cl)cc2C(=O)c2ccccc2)c2ccccc2C1=O`, the TGI with HCT-15 colon, in the experiment with COLO 205 colon, in the experiment with SNB-19 CNS, with HL-60(TB) leukemia, in the experiment with KM12 colon and with NCI-H460 lung was above 100 µM throughout. The TGI in the experiment with SK-OV-3 ovarian and with SN12C renal was above 100 µM each time.
For `CN(C)CCNC(=O)Cc1ccccc1Nc1c(Cl)cccc1Cl`, the TGI came to 29.6 µM with HCT-15 colon; 30.6 µM in the experiment with COLO 205 colon; 31.9 µM in the experiment with SNB-19 CNS; 36.1 µM with HL-60(TB) leukemia; 35.7 µM in the experiment with KM12 colon; 24.7 µM in the experiment with NCI-H460 lung. The results for the TGI in the experiment with SK-OV-3 ovarian and with SN12C renal were 33.4 µM and 31.4 µM, respectively.
In the case of `CN1Nc2ccccc2CC1=O`, the TGI in the experiment with HCT-15 colon, in the experiment on COLO 205 colon, in the experiment on SNB-19 CNS, in the experiment on HOP-92 NSCLC, in the experiment on KM12 colon and with NCI-H460 lung was above 100 µM each time. The TGI with SK-OV-3 ovarian and in the experiment on SN12C renal was above 100 µM in each case.

These data come from PubChem BioAssay (NCI).
